{"source": "patent US20230099089A1", "about": "“ANTIVIRAL SUBSTANCES WITH A WIDE SPECTRUM OF ACTIVITY” (Universitaet zu Luebeck Koerperschaft des Oeffentlichen …, priority 2020, published 2023)", "key": {"MERS-CoV Mpro": {"target": "MERS-CoV Mpro (Middle East respiratory syndrome-related coronavirus, UniProt K9N7C7)", "sequence (K9N7C7 3248-3553 limits assumed)": "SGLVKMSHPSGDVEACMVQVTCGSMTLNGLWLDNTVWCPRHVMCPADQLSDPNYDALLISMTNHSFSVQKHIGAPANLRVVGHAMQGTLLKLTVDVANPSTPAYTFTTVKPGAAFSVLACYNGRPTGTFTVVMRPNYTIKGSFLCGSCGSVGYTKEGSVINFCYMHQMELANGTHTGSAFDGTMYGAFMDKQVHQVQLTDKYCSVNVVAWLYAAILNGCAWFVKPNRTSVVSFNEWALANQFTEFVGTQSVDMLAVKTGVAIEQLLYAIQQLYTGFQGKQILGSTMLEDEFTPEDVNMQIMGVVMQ", "assay_type": "biochemical"}, "[1]": {"test": "pharmacokinetic study 2 mg/kg i.v.", "assay_type": "in vivo", "details": "for CO / MRI / V / AUC(0-t) / clearance / half-life: 2 mg/kg i.v.; for AUC(0-t) / clearance / half-life: in vivo, iv", "text": "The bioavailability of the lead compound DZLO8 was also characterized in detail in an external CRO- study and the results verified."}, "MERS-CoV": {"system": "MERS-CoV", "test": "microbe, parasite or virus in culture", "assay_type": "cell-based, MERS coronavirus", "details": "Middle East respiratory syndrome-related coronavirus"}, "SARS-CoV": {"system": "SARS-CoV", "test": "microbe, parasite or virus in culture", "assay_type": "cell-based", "details": "Severe acute respiratory syndrome coronavirus, Vero C1008, read-out: EC50 SARS-CoV"}, "HCoV-229E": {"system": "HCoV-229E", "test": "microbe, parasite or virus in culture", "assay_type": "cell-based", "details": "Human coronavirus 229E, Huh-7, read-out: EC50 HCoV-229E"}, "CVB3": {"system": "CVB3", "test": "microbe, parasite or virus in culture", "assay_type": "cell-based, coxsackievirus B3", "details": "Enterovirus B, CVB3, read-out: EC50 CVB3"}, "EV-A71": {"system": "EV-A71", "test": "microbe, parasite or virus in culture", "assay_type": "cell-based", "details": "Enterovirus A, EVA71, read-out: EC50 EV-A71"}, "plasma protein binding": {"test": "plasma protein binding", "assay_type": "in vitro ADME"}, "[2]": {"test": "metabolic stability in human microsomes", "details": "after 30 minutes"}, "[3]": {"test": "metabolic stability in mouse microsomes", "details": "after 30 minutes"}, "[4]": {"test": "pharmacokinetic study after subcutaneous injection in CD-1 mice"}, "[5]": {"details": "CD-1 mice, 20 mg/kg subcutaneous"}, "[6]": {"details": "CD-1 mice, 20 mg/kg subcutaneous, after 24 hours"}}, "note": "Like-named read-outs stand apart in the source and are kept apart here.", "data": [{"smiles": "CC(C)(C)OC(=O)Nc1cccn([C@@H](CC2CC2)C(=O)N[C@@H](C[C@@H]2CCNC2=O)C(=O)C(=O)NCc2ccccc2)c1=O", "note": "[RHCDS1c]", "values": [{"measurement": "IC50", "setting": "MERS-CoV Mpro", "value": 0.58, "unit": "µM"}]}, {"smiles": "O=C(/C=C/c1ccccc1)N[C@@H](CC1CCCCC1)C(=O)N[C@@H](C[C@@H]1CCNC1=O)C(=O)C(=O)NCc1ccccc1", "note": "[DZL08, reference compound]", "values": [{"measurement": "CO", "setting": "[1]", "value": "278.34 ± 138.5", "unit": "ng/mL"}, {"measurement": "MRI", "setting": "[1]", "value": "0.48 ± 0.0", "unit": "h"}, {"measurement": "V", "setting": "[1]", "value": "8.20 ± 4.1", "unit": "L/kg"}, {"measurement": "AUC(0-t)", "setting": "[1]", "value": "135 ± 74.6", "unit": "ng·h/mL"}, {"measurement": "clearance", "setting": "[1]", "value": "292 ± 162", "unit": "mL/min/kg"}, {"measurement": "half-life", "setting": "[1]", "value": 19.8, "unit": "min"}, {"measurement": "EC50", "setting": "MERS-CoV; Huh-7, read-out: EC50 MERS-CoV", "value": 0.0004, "unit": "µM"}, {"measurement": "EC50", "setting": "MERS-CoV; Vero, read-out: EC50 MERS-CoV", "value": 5, "unit": "µM"}, {"measurement": "EC50", "setting": "SARS-CoV", "value": 2.1, "unit": "µM"}, {"measurement": "EC50", "setting": "HCoV-229E", "value": 1.8, "unit": "µM"}, {"measurement": "EC50", "setting": "CVB3", "value": 2.8, "unit": "µM"}, {"measurement": "EC50", "setting": "EV-A71", "value": 3.7, "unit": "µM"}, {"measurement": "fraction unbound", "setting": "plasma protein binding; read-out: plasma protein binding", "value": 0.01}]}, {"smiles": "CC(C)(C)OC(=O)Nc1cccn([C@@H](CC2CCCCC2)C(=O)N[C@@H](C[C@@H]2CCNC2=O)C(=O)C(=O)NC2CC2)c1=O", "note": "[RHCDS1e]", "values": [{"measurement": "CO", "setting": "[1]", "value": "461.44 ± 345.0", "unit": "ng/mL"}, {"measurement": "MRI", "setting": "[1]", "value": "0.47 ± 0.1", "unit": "h"}, {"measurement": "V", "setting": "[1]", "value": "6.73 ± 0.4", "unit": "L/kg"}, {"measurement": "AUC(0-t)", "setting": "[1]", "value": "193 ± 59", "unit": "ng·h/mL"}, {"measurement": "clearance", "setting": "[1]", "value": "178 ± 51.2", "unit": "mL/min/kg"}, {"measurement": "half-life", "setting": "[1]", "value": "27 ± 6", "unit": "min"}, {"measurement": "improved half-life compared to the lead compound", "setting": "[1]; versus DZL08", "value": 50, "unit": "%"}, {"measurement": "toxicity in mice", "setting": "toxicity in mice", "value": "No evidence of toxicity"}, {"measurement": "compound remained metabolically stable", "setting": "[2]", "value": 60, "unit": "%"}, {"measurement": "compound remained metabolically stable", "setting": "[3]", "value": 80, "unit": "%"}, {"measurement": "fraction unbound", "setting": "plasma protein binding", "value": 0.06}, {"measurement": "MRT", "setting": "[4]; CD-1, mouse, in vivo, sc, 20 mg/kg", "value": "~95.4", "unit": "min"}, {"measurement": "Cmax", "setting": "[4]; [5]", "value": 334.50, "unit": "ng/mL"}, {"measurement": "time excreted in urine", "setting": "[4]; [5]", "value": "up to 24 hours"}, {"measurement": "time the compound remained in plasma", "setting": "[4]; [5]", "value": "about 4 hours"}, {"measurement": "concentration in broncheoalveolar washing fluid (BALF)", "setting": "[4]; [6]", "value": 52.7, "unit": "ng/mL"}, {"measurement": "concentration in the lung", "setting": "[4]; [6]", "value": 135, "unit": "ng per g tissue"}]}]}
